According to patent publication US9765067B2, “Thiophen-2-yl-pyridin-2-yl-1H-pyrazole-4-carboxylic acid derivatives and the use thereof as soluble guanylate cyclase activators” (Novartis AG, priority 2014, dated 2017):
Several values for one entry are separate records, joined by “and”; a condition that tells them apart may be missing. Equal entries are not always repeated.

The compounds below were run against T1, soluble guanylate cyclase (human GUCYA3/GUCYB3) overexpressed in CHO cells (Homo sapiens, UniProt Q02108+Q02153) (assay: CHO cellular assay (cGMP production, HTRF)). Conditions: CHO K1 clone 8E10 overexpressing human sGC, Cisbio HTRF, 1 h room temperature, 1 mM IBMX, 20 uM ODQ, minimum quantification limit 0.5 nM.
T1 construct: expressed in transfected cells
T1 sequence (Q02108 1-690 partner): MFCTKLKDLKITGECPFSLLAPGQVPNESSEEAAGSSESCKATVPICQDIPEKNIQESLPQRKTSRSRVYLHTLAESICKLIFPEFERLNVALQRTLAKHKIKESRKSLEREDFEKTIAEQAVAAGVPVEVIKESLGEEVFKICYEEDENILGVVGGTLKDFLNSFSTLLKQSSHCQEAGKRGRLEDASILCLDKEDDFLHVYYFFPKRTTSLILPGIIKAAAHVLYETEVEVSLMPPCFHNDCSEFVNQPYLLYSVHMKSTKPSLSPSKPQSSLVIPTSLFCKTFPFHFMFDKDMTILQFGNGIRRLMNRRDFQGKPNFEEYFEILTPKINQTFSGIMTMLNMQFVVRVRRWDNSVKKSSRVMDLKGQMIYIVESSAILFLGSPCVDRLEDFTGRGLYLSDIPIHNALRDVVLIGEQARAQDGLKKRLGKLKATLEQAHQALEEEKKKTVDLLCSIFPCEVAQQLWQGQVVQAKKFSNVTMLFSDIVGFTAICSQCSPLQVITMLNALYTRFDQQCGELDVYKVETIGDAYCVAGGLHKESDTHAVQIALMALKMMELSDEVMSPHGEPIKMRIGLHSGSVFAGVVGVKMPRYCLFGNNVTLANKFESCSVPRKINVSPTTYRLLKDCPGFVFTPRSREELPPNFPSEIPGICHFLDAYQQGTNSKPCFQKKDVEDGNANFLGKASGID
T1 sequence (Q02153 1-619): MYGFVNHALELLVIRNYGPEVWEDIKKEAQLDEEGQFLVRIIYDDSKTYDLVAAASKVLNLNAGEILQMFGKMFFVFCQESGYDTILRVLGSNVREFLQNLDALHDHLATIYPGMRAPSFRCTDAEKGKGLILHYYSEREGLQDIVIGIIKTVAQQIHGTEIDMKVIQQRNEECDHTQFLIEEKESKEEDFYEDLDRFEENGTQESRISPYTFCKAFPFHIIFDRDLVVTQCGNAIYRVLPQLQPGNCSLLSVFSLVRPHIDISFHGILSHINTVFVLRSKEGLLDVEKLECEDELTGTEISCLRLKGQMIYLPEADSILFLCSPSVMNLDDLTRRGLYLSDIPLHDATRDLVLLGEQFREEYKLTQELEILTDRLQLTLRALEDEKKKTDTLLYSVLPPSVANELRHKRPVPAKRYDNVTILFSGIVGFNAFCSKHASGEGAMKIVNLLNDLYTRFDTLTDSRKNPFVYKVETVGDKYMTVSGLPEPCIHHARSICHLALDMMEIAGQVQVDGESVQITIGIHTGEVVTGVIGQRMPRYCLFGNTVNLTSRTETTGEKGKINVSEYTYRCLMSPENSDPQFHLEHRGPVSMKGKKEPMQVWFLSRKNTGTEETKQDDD
Type: cell-based
Procedure, shortened: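 Stable CHO K1 clone expressing human GUCYA3/GUCYB3. Compounds applied 1 h at room temperature in HBSS, 0.1% BSA, 1 mM IBMX, 20 uM ODQ, 0.5% DMSO. cGMP measured by HTRF and interpolated from a standard curve; EC50 from 4-parameter sigmoidal fit.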

EC50 | Compound
12 nM | O=C(O)c1cnn(-c2cccc(-c3sccc3COc3ccc(C4CCN(CC(F)(F)F)CC4)cc3)n2)c1C(F)(F)F [Example 14-1, 1-(6-(3-((4-(1-(2,2,2-Trifluoroethyl)piperidin-4-yl)phenoxy)methyl)thiophen-2-yl)pyridin-2-yl)-5-(trifluoromethyl)-1H-pyrazole-4-carboxylic acid]
430 nM | Cc1cc(C2CCN(CC3CC3)CC2)ccc1OCc1ccsc1-c1cccc(-n2ncc(C(=O)O)c2C(F)(F)F)n1 [Example 14-2, 1-(6-(3-((4-(1-(Cyclopropylmethyl)piperidin-4-yl)-2-methylphenoxy)methyl)thiophen-2-yl)pyridin-2-yl)-5-(trifluoromethyl)-1H-pyrazole-4-carboxylic acid]
8.8 nM | Cc1cc(C2CCN(C(=O)C3CC3)CC2)ccc1NCc1ccsc1-c1cccc(-n2ncc(C(=O)O)c2C(F)(F)F)n1 [Example 16-1, 1-(6-(3-(((4-(1-(Cyclopropanecarbonyl)piperidin-4-yl)-2-methylphenyl)amino)methyl)thiophen-2-yl)pyridin-2-yl)-5-(trifluoromethyl)-1H-pyrazole-4-carboxylic acid]

The remaining lines, values behind:

Compound | EC50
Cc1cc(C2CCN(C(=O)C3CC(O)C3)CC2)ccc1OCc1ccsc1-c1cccc(-n2ncc(C(=O)O)c2C(F)(F)F)n1 (stereo not shown) [Example 12-5, 1-(6-(3-((4-(1-(3-Hydroxycyclobutanecarbonyl)piperidin-4-yl)-2-methylphenoxy)methyl)thiophen-2-yl)pyridin-2-yl)-5-(trifluoromethyl)-1H-pyrazole-4-carboxylic acid] | 46 nM
Cc1cc(C2CCN(C(=O)C3COC3)CC2)ccc1OCc1ccsc1-c1cccc(-n2ncc(C(=O)O)c2C(F)(F)F)n1 [Example 12-7, 1-(6-(3-((2-Methyl-4-(1-(oxetane-3-carbonyl)piperidin-4-yl)phenoxy)methyl)thiophen-2-yl)pyridin-2-yl)-5-(trifluoromethyl)-1H-pyrazole-4-carboxylic acid] | 7.5 nM
CCc1cc(OCc2cc(C)sc2-c2cccc(-n3ncc(C(=O)O)c3C)n2)ccc1C1CCN(C(=O)CC2CC2)CC1 [Example 12-8, 1-(6-(3-((4-(1-(2-Cyclopropylacetyl)piperidin-4-yl)-3-ethylphenoxy)methyl)-5-methylthiophen-2-yl)pyridin-2-yl)-5-methyl-1H-pyrazole-4-carboxylic acid] | 4.4 nM and 1 nM
CCc1cc(OCc2cc(C)sc2-c2cccc(-n3ncc(C(=O)O)c3C(F)(F)F)n2)ccc1C1CCN(C(=O)C(C)(C)CO)CC1 [Example 12-10, 1-(6-(3-((3-Ethyl-4-(1-(3-hydroxy-2,2-dimethylpropanoyl)piperidin-4-yl)phenoxy)methyl)-5-methylthiophen-2-yl)pyridin-2-yl)-5-(trifluoromethyl)-1H-pyrazole-4-carboxylic acid] | 33 nM
CCc1cc(OCc2cc(C)sc2-c2cccc(-n3ncc(C(=O)O)c3C(F)(F)F)n2)ccc1C1CCN(C(=O)CO)CC1 [Example 12-11, 1-(6-(3-((3-Ethyl-4-(1-(2-hydroxyacetyl)piperidin-4-yl)phenoxy)methyl)-5-methylthiophen-2-yl)pyridin-2-yl)-5-(trifluoromethyl)-1H-pyrazole-4-carboxylic acid] | 36 nM
Cc1cc(C2CCN(CC(F)(F)F)CC2)ccc1OCc1ccsc1-c1cccc(-n2ncc(C(=O)O)c2C(F)(F)F)n1 [Example 13, 1-(6-(3-((2-Methyl-4-(1-(2,2,2-trifluoroethyl)piperidin-4-yl)phenoxy)methyl)thiophen-2-yl)pyridin-2-yl)-5-(trifluoromethyl)-1H-pyrazole-4-carboxylic acid] | 1 nM
Cc1cc(C2CCN(C(=O)C3CC3)CC2)ccc1NCc1ccsc1-c1cccc(-n2ncc(C(=O)O)c2C)n1 [Example 15, 1-(6-(3-(((4-(1-(Cyclopropanecarbonyl)piperidin-4-yl)-2-methylphenyl)amino)methyl)thiophen-2-yl)pyridin-2-yl)-5-methyl-1H-pyrazole-4-carboxylic acid] | ≤ 0.5 nM
